Each structure is given as a SMILES string. Active and inactive are the calls of the source. No cut-off for these calls is given here.

The target of series [1] is Telomerase Cajal body protein 1 (Homo sapiens) (UniProt Q9BUR4). Nature of the series: Thermal stabilization of TCAB1 in human HL-60 cells at 10 uM incubated for 30 mins by CETSA. Type of series: cell-based.
Series [2] shares this target. Nature of the series: Inhibition of hTERT binding to TCAB1 in human HL-60 cells at 10 uM incubated for 48 hrs by Co-IP analysis. Type of series: cell-based.
A short description of series [3]: Cytotoxicity against human GES1 cells assessed as inhibition of cell growth measured after 96 hrs by CCK-8 assay. Type of series: toxicity, cell-based. (In general: Formazan colour is commonly taken as a measure of viable cells.)
The subject of series [4] is HL-60. Nature of the series: cells. Conditions: Homo sapiens, HL-60, 96 h.
Description: Antiproliferative activity against human HL-60 cells assessed as inhibition of cell growth measured after 96 hrs by CCK-8 assay
The test system of series [5] is CT26. Nature of the series: cells. Conditions: Mus musculus, CT26, 96 h.
Description: Antiproliferative activity against mouse CT26 cells assessed as inhibition of cell growth measured after 96 hrs by CCK-8 assay
For series [6], the target named is Telomerase reverse transcriptase (Homo sapiens, UniProt O14746). Nature of the series: Inhibition of telomerase activity in human HL-60 cells incubated for 96 hrs by TRAP-PCR assay. Type of series: cell-based.
Sequence of Telomerase reverse transcriptase (O14746 whole entry): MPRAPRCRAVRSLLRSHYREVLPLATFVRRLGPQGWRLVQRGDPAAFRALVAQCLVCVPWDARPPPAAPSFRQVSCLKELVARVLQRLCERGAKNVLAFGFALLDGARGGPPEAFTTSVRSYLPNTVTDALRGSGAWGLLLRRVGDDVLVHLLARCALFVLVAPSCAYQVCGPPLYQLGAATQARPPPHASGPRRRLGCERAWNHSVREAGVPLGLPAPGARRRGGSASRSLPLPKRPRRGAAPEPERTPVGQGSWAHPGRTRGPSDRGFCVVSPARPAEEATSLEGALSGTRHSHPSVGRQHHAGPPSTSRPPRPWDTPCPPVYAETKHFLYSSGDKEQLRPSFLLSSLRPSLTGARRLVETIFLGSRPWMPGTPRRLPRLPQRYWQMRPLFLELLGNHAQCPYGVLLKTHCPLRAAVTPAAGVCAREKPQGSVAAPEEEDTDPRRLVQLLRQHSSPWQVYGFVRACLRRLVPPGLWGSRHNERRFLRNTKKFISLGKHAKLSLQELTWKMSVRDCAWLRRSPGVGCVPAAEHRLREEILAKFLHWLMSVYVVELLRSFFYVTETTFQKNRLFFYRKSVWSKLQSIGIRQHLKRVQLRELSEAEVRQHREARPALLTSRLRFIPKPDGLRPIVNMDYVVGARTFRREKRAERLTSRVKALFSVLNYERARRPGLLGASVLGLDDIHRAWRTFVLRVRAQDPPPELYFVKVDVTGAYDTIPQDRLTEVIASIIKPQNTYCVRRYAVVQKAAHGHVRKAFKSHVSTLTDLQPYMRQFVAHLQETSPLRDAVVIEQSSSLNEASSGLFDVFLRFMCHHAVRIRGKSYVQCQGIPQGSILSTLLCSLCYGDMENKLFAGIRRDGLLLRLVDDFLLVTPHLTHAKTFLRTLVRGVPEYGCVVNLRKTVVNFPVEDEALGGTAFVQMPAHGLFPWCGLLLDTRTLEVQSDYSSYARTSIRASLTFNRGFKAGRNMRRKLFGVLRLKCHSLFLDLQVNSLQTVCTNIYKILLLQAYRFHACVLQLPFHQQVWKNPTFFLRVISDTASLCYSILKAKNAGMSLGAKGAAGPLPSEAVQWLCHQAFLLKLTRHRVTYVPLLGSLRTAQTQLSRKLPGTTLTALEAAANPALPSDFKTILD

Sequence of Telomerase Cajal body protein 1 (Homo sapiens) (Q9BUR4 whole entry): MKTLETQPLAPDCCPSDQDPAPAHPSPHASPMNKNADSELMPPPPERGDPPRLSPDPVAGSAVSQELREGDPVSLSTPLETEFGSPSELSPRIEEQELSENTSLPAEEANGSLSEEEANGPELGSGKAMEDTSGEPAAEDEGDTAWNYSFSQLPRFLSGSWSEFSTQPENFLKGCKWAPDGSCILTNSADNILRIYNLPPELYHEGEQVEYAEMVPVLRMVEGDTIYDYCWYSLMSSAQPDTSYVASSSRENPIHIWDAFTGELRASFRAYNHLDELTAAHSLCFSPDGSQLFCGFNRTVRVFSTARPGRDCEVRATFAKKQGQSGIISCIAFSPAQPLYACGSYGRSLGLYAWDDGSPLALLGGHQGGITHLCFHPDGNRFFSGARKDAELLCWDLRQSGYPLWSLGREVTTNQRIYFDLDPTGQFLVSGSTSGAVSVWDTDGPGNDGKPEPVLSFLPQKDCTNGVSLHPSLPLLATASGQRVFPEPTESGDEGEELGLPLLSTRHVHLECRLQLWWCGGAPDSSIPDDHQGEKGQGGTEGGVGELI

Turning to `C#CCOc1ccc(/C=C2\SC(Nc3ccc(OCC)cc3)=C(C(=O)OCC)C2=O)cc1OC`, the outcome in series [1] was Active. Further, in series [2], the inhibition result was “inactive”. Also, the IC50 (usually the concentration that gives 50% inhibition) at 96 h in series [3] is > 1000 µM. The IC50 in series [4] is > 200 µM; in series [5], 46.3 µM. As to `CCOc1cc(C2NC(=O)N(C)C(C)=C2C(=O)OCC2CCCO2)cc(Cl)c1O` (configuration not stated), the IC50 in series [6] is > 10 µM. Take `CCOc1cc(/C=C2/C(=N)N3N=C(C)SC3=NC2=O)ccc1OCCOc1cccc(OC)c1`: the IC50 in series [6] was > 10 µM. Take `CCCc1cc(=O)oc2cc(OCC(=O)Nc3ccc(S(N)(=O)=O)cc3)c(Cl)cc12`: the 50% inhibitory concentration (IC50) in series [6] was > 10 µM. Same read-out and setting: as for `O=C(C1=C(O)C(=O)N(CCOCCO)C1c1cccc(O)c1)c1cccs1` (configuration not stated), the figure is > 10 µM; as for `COc1ccc(C2C(C(=O)Nc3ccc(Cl)cc3)=C(C)N=C3N=C(CCCO)NN32)c(OC)c1` (configuration not stated), > 10 µM. In the case of `Cc1ccc2nc(NCCO)c(/C=C3\SC(=S)N(Cc4ccc5c(c4)OCO5)C3=O)c(=O)n2c1`, in series [6], the IC50 is > 10 µM. With `CCOc1ccc(N2C(=O)CC(N(CCc3ccc(S(N)(=O)=O)cc3)C(C)=O)C2=O)cc1` (configuration not stated), the IC50 in series [6] is > 10 µM. As to `C/C(=C\C(=O)Nc1ccccc1C(=O)O)c1ccc2ccccc2c1`, the results for the IC50 in series [6], in series [4] and in series [5] were 0.091 µM, 47.8 µM and 42.9 µM, respectively. In series [3], the IC50 at 96 h amounted to 206 µM. For `CCOC(=O)c1cccc(NC(=O)CSc2nnc(-c3cccnc3)n2-c2ccc(OC)cc2)c1`, in series [6], the IC50 was > 10 µM. For the compound `O=C(C1=C(O)C(=O)N(Cc2ccco2)C1c1cccc(O)c1)c1ccc2c(c1)OCCO2` (configuration not stated), the result in series [1] was Active. Further, the inhibition result in series [2] is “inactive”. In addition, the IC50 at 96 h in series [3] was > 1000 µM. In addition, the IC50 in series [4] and in series [5] was > 200 µM each time. In the case of `O=C(CCS(=O)(=O)c1nc(-c2ccccc2)cc(C(F)(F)F)n1)Nc1cccnc1Cl`, the IC50 in series [6] was > 10 µM. Consider `CC(=O)c1cccc(/N=c2\scc(-c3ccc(S(=O)(=O)N4CCOCC4)cc3)n2CCO)c1`, for which, in series [6], the IC50 was > 10 µM. Consider `CCOC(=O)C1=C(C)N=c2s/c(=C\c3ccc(O)c(OC)c3)c(=O)n2C1c1ccc(OCC)cc1` (configuration not stated), for which the IC50 in series [6] was > 10 µM. As to `CCOc1cc(C2NC(=O)NC(C)=C2C(=O)OCc2ccc3c(c2)OCO3)ccc1O` (configuration not stated), the concentration for half-maximal inhibition (IC50) in series [6] is > 10 µM. Regarding `COC(=O)C1=C(C)N(CC2CCCO2)C(=O)/C1=C\c1ccc(OCC(=O)NC(C)C)cc1` (configuration not stated), the outcome in series [1] was Active. In series [2], the inhibition result is “inactive”. Besides, the IC50 at 96 h in series [3] was > 1000 µM. For the same compound, the values for the IC50 in series [4] and in series [5] were 156 µM and 26.9 µM, respectively.

For `CC(=O)Nc1ccc(/C=C2\C=C(C(O)c3ccc(NC(C)=O)cc3)c3ccccc32)cc1` (configuration not stated), the IC50 in series [6] is > 10 µM. Same read-out and setting: as for `COc1ccc(C(=O)C2=C(O)C(=O)N(CCO)C2c2ccc(C)cc2)cc1` (configuration not stated), the figure is > 10 µM. On to `CCOc1cc(C2C(C#N)=C(N)Oc3n[nH]c(C(C)(C)C)c32)ccc1OCCN1CCOCC1` (configuration not stated), for which the IC50 in series [6] is > 10 µM. For the compound `CCC(CO)NS(=O)(=O)c1cccc2c(S(=O)(=O)NC(CC)CO)cccc12` (configuration not stated), the IC50 in series [6] is > 10 µM.

On to `COc1ccc(-c2ccc(S(=O)(=O)NCCO)cc2)c(S(=O)(=O)NCCO)c1`, for which, in series [6], the IC50 was > 10 µM. As to `CCn1c(CN2NC(C)=CCC2=O)nnc1SCC(=O)Nc1ccc(S(N)(=O)=O)cc1`, the IC50 in series [6] is > 10 µM.
